This note sets out measurements from patent US6103888A, “Mammalian cationic proteins having lipopolysaccharide binding and anti-coagulant activity” (priority 1999, dated 2000).

Test [1] concerns Salmonella minnesota ReLPS sensitized sheep erythrocytes. Kind of test: LPS hemagglutination assay (MAC). The test is classed as binding. On the procedure: For hemagglutination assays, erythrocytes were sensitized with LPS as follows. One ml of 1% erythrocyte suspension (human 0 type, C3H/HeN mouse or sheep) was mixed with 0.2 ml of LPS solution and incubated at 37° C. for 30 min, followed by washing with phosphate buffered saline (PBS), and then the concentration of suspension was adjusted to 1.0%. In the case of S-LPS, the solution was heated at 100° C. for 1 hour before sensitization of erythrocytes. […] Activity of CAP was expressed as a minimum agglutinating concentration (MAC) of CAP. According to the method of Kirikae et al. (1986) Microbiol. Immunol. 30:269-274, 50 μl of 2-fold serial dilution of Re-LPS was added to 50 μl of 1.0% rabbit erythrocyte suspension, and incubated at 37° C. for 3 hour. Minimum agglutinating concentration of Re-LPS was expressed as 1 HA unit.

In test [2] the test system is thioglycollate-stimulated murine peritoneal macrophages. As to the kind of experiment: LPS-induced tissue factor generation by macrophages (clotting assay). The test is classed as cell-based. The note with it: peptides 1 μg/ml incubated with S. minnesota smooth LPS 5 minutes; 6 hr. On the procedure: Tissue factor assay. Salmonella minnesota smooth LPS was incubated with each peptide (1 μg/ml) for 5 min., then the mixture was added to peritoneal murine macrophages obtained 4 days after thioglycollate stimulation. Cells were cultured for 6 hours prior to assay of tissue factor by clotting assay.
Various concentrations of Salmonella minnesota smooth LPS were incubated with each peptide (197 (RNIP), 36-1, 32-1, and 50-2) at 37° C. for 5 minutes prior to mixing with thioglycollate-stimulated murine peritoneal macrophages. Production of tissue factor after 6 hr. was measured by clotting assay. […] In the absence of LPS no tissue factor is synthesized by these cells.

The subject of test [3] is Human plasma. Kind of test: Prothrombin time (PT). The test is classed as biochemical. On the procedure:
Prothrombin time (PT). Human plasma (100 μl) was incubated with 100 μl of each peptide at 37° C. for 3 min., then 100 μl of tissue factor (250 μg/ml) CaCl2 was added and clotting time was measured.

Test [4] addresses prothrombin (factor II) (Homo sapiens, UniProt P00734). As to the kind of experiment: Prothrombin activation by Echis Carinatus venom (ECV). The test is classed as biochemical. As to the method:
Prothrombin activation by Echis Carinatus venom (ECV). A reaction mixture of prothrombin (factor II) (0.1 unit/ml, 200 μl), ECV (1 unit/ml, 200 μl), various concentration of peptide (70 μl), 50 μl of 25 mM-CaCl2 and 180 μl of Tris buffer was incubated at 37° C. for 10 min. To 300 μl of the reaction mixture, 60 μl of 4 mM-thrombin substrate and 240 μl of buffer was added and further incubated for 15 min.

For test [5], the system named is Salmonella minnesota Re. Kind of test: Antibacterial CFU assay.
The test system of test [6] is Salmonella typhimurium. As to the kind of experiment: Antibacterial CFU assay. The conditions noted are these: for anti-bacterial activity (CFU), in words: Salmonella typhimurium, smooth strain; for effect on CFU of S. typhimurium: high concentrations alone and in various combinations.
Test [7] concerns RAW 264.7 cells. As to the kind of experiment: LPS- or IFNγ-induced reactive nitrogen intermediate (RNI) production, Griess nitrite assay. The test is classed as cell-based, murine. The note with it: macrophages / RAW 264.7 cells. On the procedure:
From the sequence of the CAP18 cDNA, it was apparent that the putative N-terminal peptide of CAP18 was in fact an internal fragment of the CAP18 protein. We therefore tried to reconfirm the original protein sequence. Neutrophil-derived heparin bound cationic proteins were prepared as described above and applied to a C18 reverse phase HPLC (FIG. 1). We sequenced the major peaks. Peaks at fractions 14.5 and 15.2 correspond to defensins MCP1 and MCP2 (Territo et al. (1989) J. Clin. Invest. 84:2017-2019), respectively. Fraction 25.8 is macrophage related protein 14 (MRP14) (Odink et al. (1987) Nature 330:80-82). The fraction at 20.3 minutes corresponds to a fragment of CAP18 of approximately 4-5 kD. […] The murine macrophage cell line RAW 264.7 (obtained from ATCC) and thioglycollate-elicited murine peritoneal exudate cells are used to produce RNI. Cells are cultured at 1×10^6 /ml. in RPMI-1640 +2.5% FCS in 24 well plates in the presence or absence of different concentrations of LPS or murine rlFNγ. After 24 hr. incubation at 37° C., the cell free supernatant is collected and tested for the presence of RNI. Accumulation of nitrite in the medium is measured by a calorimetric assay based on the Griess reaction (Green et al. (1982) Anal. Biochem. 126:11) using sodium nitrite as standards. Sample (50 μl) is mixed with 50 μl of Griess reagent (1% sulfanilamide, 0.1% naphthalene diamine dihydrochloride, 2.5% H3 PO4) and after 10 min. at room temperature absorbance is read at 570 nm.

For test [8], the system named is tissue factor generation. Kind of test: Effect of CAP-37 on LPS-induced tissue factor generation. Format: cell-based. The conditions noted are these: for Tissue factor units / Tissue factor units, value in parentheses (ratio to control): CAP-37 15 HA. As to the method:
Table 6 presents a comparison of the effect of RNIP, CAP18, and defensins HP-1 and HP-2 (Territo et al. (1989) J. Clin. Invest. 84:2017-2019) on LPS-induced tissue factor generation. Tissue factor assays were performed as follows. Mouse peritoneal cells were elicted with an intraperitoneal injection of thioglycolate medium and harvested 5-days later by irrigation with pyrogen-free saline. The cells were washed with RPMI 1640 medium, counted and resuspended at a concentration of 1.5-2.0×10^6 /ml in serum-free RPMI medium containing glutamine (0.29 mg/ml), penicillin (50 units/ml) and streptomycin ([…]). Adherent cells were prepared by incubating 10 ml of a cell suspension (in RPMI 1640 media in sterile culture bottle (Nunclon, 50 ml, Inter Med) for 60 min. at 37° C. in a 5% CO2 atmosphere. The plastic adherent cells were recovered by scraping of the bottle with a sterile rubber policeman. The adherent cells were then washed twice with RPMI media, resuspended in serum-free medium (1×10^6 /ml) in culture tube (Nunc cryotube, Inter Med), and stimulated with graded doses of LPS for 6 hr. at 37° C. in a 5% CO2. The cell suspension was centrifuged and cell pellet was frozen at -80° C. until clotting assays were run.
Veronal buffered saline (VBS) was added to the cell pellet, lysed by 3 cycles of freeze/thaw and sonicated for 10 sec with a hand-held sonicator microbe (Handy Sonic, model UR-20P, Tomy Seiko LTD, Tokyo). Tissue factor activity was tested in modified unactivated partial thromboplastin time (7). One tenth ml of cell lysate (1×10^6 /ml) was preincubated with mouse plasma at 37° C. for 3 min. Then 0.1 ml of 25 mM-CaCl2 which contains phospholipid was added to the mixture and clotting time was measured using a fibrometer (Bio Quest Division, Becton Dickinson, Cokeysville, USA). A standard curve obtained from serial two-fold dilutions of rabbit brain thromboplastic (Simplastin, Ono Pharmaceutical Co.) was used to transpose tissue factor activity into arbitrary tissue factor units (1 μg/ml) suspension of rabbit brain was assigned a value of 1,000 units).
.dagger.LPS was incubated with CAP37 at 37° C. for 2 hours, and th
mixture was added to cells, then cultured for 6 hours.

Test [9] addresses prothrombin (factor II).

Consider “21-1: synthetic rabbit RNIP fragment, amino acids 135-151 of SEQ ID NO:4 (GLRKRLRKFRNKIKEKL) [Peptide 21-1]”, for which the “Hemagglutination [MAC], minimum agglutinating concentration” value (“Hemagglutination [MAC]” for short) in [1] is over 125 µg/mL.
Take “32-1: synthetic rabbit RNIP fragment, amino acids 135-143 of SEQ ID NO:4 (GLRKRLRKF) [Peptide 32-1]”: the “Hemagglutination [MAC]” value in test [1] is over 125 µg/mL. For the same molecule, the “inhibition of LPS induced tissue factor (in words)” value in test [2] is “fail to inhibit”. Also, the “inhibition of the prothrombin time (PT), in words” value in [3] is “inactive”. In addition, in test [4], the “inhibition of Echis carinatus venom activation of purified factor II to IIa (in words)” value was “inactive”. The “anti-bacterial activity (CFU), in words” value in test [5] is reported as “not active”. The “effect of pretreatment on bacterial killing by peptide 197” value in test [6] (S. typhimurium pretreated with peptide 32-1, then peptide 197) is given as “no inhibition or augmentation”. In addition, in test [6], the “anti-bacterial activity (CFU), in words” value is on record as “not active” and the “effect on CFU of S. typhimurium” value was “No effect”.
For “34-1: synthetic rabbit RNIP fragment, amino acids 140-166 of SEQ ID NO:4 (LRKFRNKIKEKLKKIGQKIQGLLPKLA) [Peptide 34-1]”, in test [1], the “Hemagglutination [MAC]” value was over 125 µg/mL.
As to “50-1: synthetic rabbit RNIP fragment, amino acids 147-171 of SEQ ID NO:4 (IKEKLKKIGQKIQGLLPKLAPRTDY) [Peptide 50-1]”, in [1], the “Hemagglutination [MAC]” value was over 125 µg/mL.
With “50-2: synthetic rabbit RNIP fragment, amino acids 147-171 of SEQ ID NO:4 (IKEKLKKIGQKIQGLLPKLAPRTDY) [Peptide 50-2]”, in [1], the “Hemagglutination [MAC]” value was over 125 µg/mL. For the same molecule, in [2], the “inhibition of LPS induced tissue factor (in words)” value was “fail to inhibit”. In [3], the “inhibition of the prothrombin time (PT), in words” value was “inactive”. Also, the “inhibition of Echis carinatus venom activation of purified factor II to IIa (in words)” value in test [4] was “inactive”. Also, the “anti-bacterial activity (CFU), in words” value in test [5] and in test [6] was “not active” throughout. The “effect on CFU of S. typhimurium” value in test [6] was “No effect”.
Consider “52-1: synthetic rabbit RNIP fragment, amino acids 143-169 of SEQ ID NO:4 (FRNKIKEKLKKIGQKIQGLLPKLAPRT) [Peptide 52-1]”, for which, in test [1], the “Hemagglutination [MAC]” value was over 125 µg/mL.
Same read-out and setting: under “52-2: synthetic rabbit RNIP fragment, amino acids 143-170 of SEQ ID NO:4 (FRNKIKEKLKKIGQKIQGLLPKLAPRTD) [Peptide 52-2]” stands over 125 µg/mL; under “52-3: synthetic rabbit RNIP fragment, printed as amino acids 132-171 of SEQ ID NO:4 (EPTGLRKRLRKFRNKIKEKLKKIGQKIQGLLPKLAPRTDY) [Peptide 52-3]”, over 125 µg/mL; under “54-1: synthetic rabbit RNIP fragment, amino acids 139-170 of SEQ ID NO:4 (RLRKFRNKIKEKLKKIGQKIQGLLPKLAPRTD) [Peptide 54-1]”, over 125 µg/mL.
Take “54-2: synthetic rabbit RNIP fragment, amino acids 139-171 of SEQ ID NO:4 (RLRKFRNKIKEKLKKIGQKIQGLLPKLAPRTDY) [Peptide 54-2]”: in test [1], the “Hemagglutination [MAC]” value was over 125 µg/mL.
“187: synthetic rabbit RNIP fragment, amino acids 151-171 of SEQ ID NO:4 (LKKIGQKIQGLLPKLAPRTDY) [Peptide 187]”: the “inhibition of LPS-induced RNI production (in words)” value in test [7] is “inactive”. In addition, the “Hemagglutination [MAC]” value in test [1] is over 125 µg/mL.
On to polymyxin B [reference compound], for which the “inhibition of LPS-induced RNI production (in words)” value in test [7] is “inhibition”.

B1: CAP-37: another cationic peptide, azurocidin (CAP37) (Morgan et al.) (protein, UniProt P20160 27-248, looked up)
Azurocidin: IVGGRKARPRQFPFLASIQNQGRHFCGGALIHARFVMTAASCFQSQNPGVSTVVLGAYDLRRRERQSRQTFSISSMSENGYDPQQNLNDLMLLQLDREANLTSSVTILPLPLQNATVEAGTRCQVAGWGSQRSGGRLSRFPRFVNVTVTPEDQCRPNNVCTGVLTRRGGICNGDGGTPLVCEGLAHGVASFSLGPCGRGPDFFTRVALFRDWIDGVLNNPGP
With B1, the “inhibition of tissue factor generation (in words)” value in test [8] is listed as “unable to inhibit tissue factor generation”. For the same molecule, the Tissue factor units is recorded as 383 ± 307 units /1 × 10^5 cells in [8] (LPS 0.1 μg/ml), 648 ± 343 units /1 × 10^5 cells in [8] (LPS 1.0 μg/ml) and 183 ± 67 units /1 × 10^5 cells in test [8] (no LPS). Also, the “Tissue factor units, value in parentheses (ratio to control)” value is on record as 2.3 in [8] (LPS 0.1 μg/ml), 3.9 in test [8] (LPS 1.0 μg/ml) and 1.1 in [8] (no LPS).
Turning to GLRKRLRKFRNKIKEKLKKIGQKIQGLLPKLA [synthetic rabbit RNIP peptide 36-1], the IC50, factor II activation by Xa in test [9] is under 30 nM.
Consider GLRKRLRKFRNKIKEKLKKIGQKIQGLLPKLAPRTDY [synthetic rabbit RNIP peptide 197], for which the IC50, factor II activation by Xa in test [9] stood at 50 nM.
